According to publication PMC6372542 (Frontiers in Pediatrics, 2019):
Several values for one entry are separate records, joined by “and”; a condition that tells them apart may be missing. Identical values can stand only once. Like-named read-outs stand apart in the source and are kept apart here.

What was measured:
[1] = Plasma concentrations of protease inhibitors, ritonavir and efavirenz (antiretroviral exposures); conditions: for AUC / Cmax: human, in vivo; for Clast: plasma, median (interquartile range), range for lopinavir, median (range) for efavirenz
Excerpt: (§1) Study procedures were standardized across multiple study arms. The single pharmacokinetic visit included a medication history, adherence survey, and a CYP2D6 phenotype assessment (the other psychotropic study medications were primarily metabolized by CYP 2D6). Participants with HIV had to be taking their antiretroviral medications consistently for at least 4 weeks prior to sampling. […] Plasma samples were drawn at pre-dose and 2, 4, 6, 12, and 24-h post-dose.
Plasma concentrations of primary protease inhibitors, ritonavir and efavirenz were measured at the University of California San Diego Pediatric Pharmacology Laboratory by validated reverse phase high performance liquid chromatography or mass spectrometry methods.

[2] = cited from earlier work; for half-life: adolescents, ref [17]
[3] = Non-compartmental plasma pharmacokinetics of sertraline and N-desmethylsertraline in HIV-infected and uninfected youth (IMPAACT P1080); conditions: for C0: pre-dose plasma; for CL/F: po, non-compartmental apparent oral clearance; for concentration: read-out: Norm-C0
Excerpt: International Maternal Pediatric Adolescent AIDS Clinical Trials Network (IMPAACT) P1080 was a multicenter, pilot study of psychiatric and antiretroviral medication concentrations in HIV-1-infected and uninfected youth.
as §1
Analytes and internal standard were extracted with 600 μL of acetonitrile from 200 μL of plasma, then eluted from a Gemini C18 column in under 4 min using acetonitrile/water/formic acid (85:15:0.1, v/v/v) as the mobile phase.
The area under the concentration vs. time curve from time 0–24 h post dose (AUC0−24) was estimated using the trapezoidal rule. Apparent oral clearance (CL/F), where F is bioavailability, was calculated as dose divided by AUC0−24. The apparent volume of distribution (V/F) was determined as CL/F divided by k, where k is the terminal slope of the log plasma concentration-time curve. The half-life (t1/2) was calculated as 0.693/k. All concentration data were normalized to dose (100 mg) and to weight (70 kg). Non-compartmental parameters were estimated with Phoenix® WinNonlin® (Certara L.P. (Pharsight), St. Louis, MO). Pharmacokinetic parameters were compared between HIV(–) and PI/r cohorts with Wilcoxon rank-sum tests, two-sided with significance set to 0.05. Statistical comparisons were not made with the EFV group due to the low enrollment/accrual in this cohort (n = 3).

[4] = Sertraline population pharmacokinetics (NONMEM, one-compartment model at steady-state); format: in vivo, human; conditions: for V/F / ka: typical population value, Estimate (% SE)
Protocol: A one-compartment model at steady-state with first-order absorption and elimination best described the data (ADVAN2 TRANS2, FOCE with interaction). A combined (additive and proportional) residual error model was used. Covariates were screened individually on each pharmacokinetic parameter (CL/F, V/F, and ka). For all models, goodness of fit were assessed with diagnostic plots. All covariates that improved model fit at p < 0.05 were included in the multivariate screen.

[5] = EFV cohort n = 3, median (minimum, maximum)
[6] = PI/r cohort n = 12, median (interquartile range)

COC(=O)N[C@H](C(=O)N[C@@H](Cc1ccccc1)[C@@H](O)CN(Cc1ccc(-c2ccccn2)cc1)NC(=O)[C@@H](NC(=O)OC)C(C)(C)C)C(C)(C)C [Atazanavir]
AUC [1]: 27200 ng·h/mL
Cmax [1]: 3800 ng/mL
Clast [1]: 1.2 (0.9, 2.6) μg/mL

O=C1Nc2ccc(Cl)cc2[C@@](C#CC2CC2)(C(F)(F)F)O1 [Efavirenz]
AUC [1]: 24500 ng·h/mL
Cmax [1]: 1300 ng/mL
Clast [1]: 1.3 (1.3, 3.4) μg/mL

N[C@H]1CC[C@@H](c2ccc(Cl)c(Cl)c2)c2ccccc21 [N-desmethylsertraline]
elimination half-life ([2]; metabolite, ref [5]): 62 to 104 h

CC(C)c1nc(CN(C)C(=O)N[C@H](C(=O)N[C@@H](Cc2ccccc2)C[C@H](O)[C@H](Cc2ccccc2)NC(=O)OCc2cncs2)C(C)C)cs1 [Ritonavir]
AUC [1]: 4900 ng·h/mL
Cmax [1]: 600 ng/mL
Clast [1]: 0.2 (0.1, 0.4) μg/mL

CN[C@H]1CC[C@@H](c2ccc(Cl)c(Cl)c2)c2ccccc21 [Sertraline]
sertraline exposures lower in EFV participants than HIV(–) and PI/r groups ([3]; EFV cohort n = 3): ~ 50%
C24 ([3]; EFV cohort n = 3, 24 h post-dose, median (minimum, maximum)): 4.2 (2.9, 5.9) ng/mL
Tmax [3, 5]: 6 (4, 6) hr
C0 [3, 5]: 6 ng/mL and 6.0 (3.0, 7.0) ng/mL
normalized trough concentrations, C0 and C24 ([3]; HIV(-) and PI/r groups): 18 to 33 ng/mL
sertraline exposure lower in the PI/r cohort than in HIV(–) ([3]; PI/r cohort compared to HIV(–)): ~ 40% and 30–40%
Tmax [3, 6]: 4 (4, 6) hr
C0 [3, 6]: 10.0 (7.5, 15.9) ng/mL
Tmax ([3]; human, in vivo): 4 h
Cmax ([3]; human, in vivo, 0.7 mg/kg, Cmax, EFV cohort n = 3, median (minimum, maximum)): 13.2 ng/mL
Cmax ([3]; human, in vivo, 0.9 mg/kg, Cmax, PI/r cohort n = 12, median (interquartile range)): 34.3 ng/mL
Cmax ([3]; human, in vivo, 1.3 mg/kg, Cmax, HIV(-) cohort n = 16, median (interquartile range)): 46.7 ng/mL
AUC(0-t) ([3]; human, in vivo, 100 mg, Norm-AUC0−24, EFV cohort n = 3, normalized to a 100 mg once daily dose and a weight of 70 kg, median (minimum, maximum)): 473 ng·h/mL
AUC(0-t) ([3]; human, in vivo, 100 mg, Norm-AUC0−24, HIV(-) cohort n = 16, normalized to a 100 mg once daily dose and a weight of 70 kg, median (interquartile range)): 1180 ng·h/mL
AUC(0-t) ([3]; human, in vivo, 100 mg, Norm-AUC0−24, PI/r cohort n = 12, normalized to a 100 mg once daily dose and a weight of 70 kg, median (interquartile range)): 791 ng·h/mL
concentration at 24 h ([3]; human, in vivo, 100 mg, Norm-C24, EFV cohort n = 3, normalized to 100 mg once daily and 70 kg, median (minimum, maximum)): 12.8 ng/mL
concentration at 24 h ([3]; human, in vivo, 100 mg, Norm-C24, HIV(-) cohort n = 16, normalized to 100 mg once daily and 70 kg, median (interquartile range)): 32.7 ng/mL
concentration at 24 h ([3]; human, in vivo, 100 mg, Norm-C24, PI/r cohort n = 12, normalized to 100 mg once daily and 70 kg, median (interquartile range)): 20.1 ng/mL
Cmax ([3]; human, in vivo, 100 mg, Norm-Cmax, EFV cohort n = 3, normalized to 100 mg once daily and 70 kg, median (minimum, maximum)): 28.8 ng/mL
Cmax ([3]; human, in vivo, 100 mg, Norm-Cmax, HIV(-) cohort n = 16, normalized to 100 mg once daily and 70 kg, median (interquartile range)): 78.3 ng/mL
Cmax ([3]; human, in vivo, 100 mg, Norm-Cmax, PI/r cohort n = 12, normalized to 100 mg once daily and 70 kg, median (interquartile range)): 46.9 ng/mL
AUC(0-t) ([3]; human, in vivo, AUC0−24, EFV cohort n = 3, plasma, steady state, median (minimum, maximum)): 145 ng·h/mL
AUC(0-t) ([3]; human, in vivo, AUC0−24, HIV(-) cohort n = 16, plasma, steady state, median (interquartile range)): 652 ng·h/mL
AUC(0-t) ([3]; human, in vivo, AUC0−24, PI/r cohort n = 12, plasma, steady state, median (interquartile range)): 486 ng·h/mL
concentration at 24 h ([3]; human, in vivo, C24, EFV cohort n = 3, 24 h post-dose, median (minimum, maximum)): 4.2 ng/mL
concentration at 24 h ([3]; human, in vivo, C24, HIV(-) cohort n = 16, 24 h post-dose, median (interquartile range)): 17.5 ng/mL
concentration at 24 h ([3]; human, in vivo, C24, PI/r cohort n = 12, 24 h post-dose, median (interquartile range)): 12.6 ng/mL
half-life ([3]; human, in vivo, T1/2, EFV cohort n = 3, median (minimum, maximum)): 11.1 h
half-life ([3]; human, in vivo, T1/2, HIV(-) cohort n = 16, median (interquartile range)): 26.4 h
half-life ([3]; human, in vivo, T1/2, PI/r cohort n = 12, median (interquartile range)): 18.1 h
CL/F ([3]; human, in vivo, EFV cohort n = 3, median (minimum, maximum)): 75 mL/min/kg
CL/F ([3]; human, in vivo, HIV(-) cohort n = 16, median (interquartile range)): 23.3 mL/min/kg
CL/F ([3]; human, in vivo, PI/r cohort n = 12, median (interquartile range)): 26.7 mL/min/kg
concentration ([3]; EFV cohort n = 3, normalized to 100 mg once daily and 70 kg, median (minimum, maximum)): 13.1 ng/mL
concentration ([3]; HIV(-) cohort n = 16, normalized to 100 mg once daily and 70 kg, median (interquartile range)): 33.3 ng/mL
concentration ([3]; PI/r cohort n = 12, normalized to 100 mg once daily and 70 kg, median (interquartile range)): 17.8 ng/mL
clearance higher than in geriatric population pharmacokinetic study ([4]; 115 L/h vs 83.1 L/h in geriatric patients with Alzheimer's Disease): 38%
V/F ([4]; base model): 53.8 L/kg
ka ([4]; base model): 0.45 1/h and 0.45 (16.2) 1/h
V/F ([4]; final model): 44.6 L/kg
ka ([4]; final model): 0.42 1/h and 0.42 (14.7) 1/h
clearance ([4]; human, plasma, oral, population model, for a typical 70 kg patient, read-out: estimated clearance (converted)): 1920 mL/min
half-life ([2]; single dose): 26.7 h
half-life ([2]; steady-state): 15.3 h
elimination half-life ([2]; adults, children, and adolescents, ref [5]): about 27 h
decrease of sertraline exposure (AUC0−24) by efavirenz ([2]; adults, concomitant efavirenz, ref [13]): ~ 40%
AUC0−24 ([2]; after multiple dosing in prior adult studies, normalized to a 100 mg dose, ref [20]): 1038 to 1532 ng·h/mL
half-life at steady-state ([2]; lower end of dose range of 50–200 mg, ref [15], [17]): 15.3 h
sertraline exposure (AUC0−24 and Cmax) lower in children and adolescents ([2]; plasma concentration adjusted for weight, compared to adults, ref [5], [9]): ~ 22%
clearance ([2]; population pharmacokinetic study of geriatric patients (median age = 76 years) with Alzheimer's Disease, ref [23]): 83.1 L/h
AUC0−24 ([2]; previous pediatric studies, normalized to 100 mg dose and 70 kg weight, ref [15], [17]): 883 to 2,535 ng·h/mL
median sertraline trough ([2]; therapeutic drug monitoring program, 100 mg daily doses, IQR 12–30 ng/mL, ref [21]): 20 ng/mL
half-life at steady-state ([2]; upper end of dose range of 50–200 mg, ref [15], [17]): 27.2 h
